pIC50: −log10 of the molar value.
System: 377384-186-R-J1-PDC complex spheroid viability
Test: Anticancer human tumor 377384-186-R-J1-PDC patient-derived pancreatic carcinoma cell line growth inhibition [RAS]
Conditions: for pIC50: curve of first compound; for viability, T/C: stronger effect = lower value
Procedure, shortened: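 Multi-cell-type spheroids: tumor cells plus HUVEC endothelial cells and mesenchymal stem cells. RAS-pathway inhibitors were combined with targeted agents, each dosed in half-log steps down from clinical Cmax, or from 10 microM when Cmax was unknown.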

[1] = second compound 0.000949 µM, first compound 0.0316 µM
[2] = second compound 0.000949 µM, first compound 0.1 µM
[3] = second compound 0.000949 µM, first compound 0.316 µM
[4] = second compound 0.000949 µM, first compound 1 µM
[5] = second compound 0.000949 µM, first compound 3.16 µM
[6] = second compound 0.000949 µM, first compound 10 µM
[7] = second compound 0.003 µM, first compound 0.0316 µM
[8] = second compound 0.003 µM, first compound 0.1 µM
[9] = second compound 0.003 µM, first compound 0.316 µM
[10] = second compound 0.003 µM, first compound 1 µM
[11] = second compound 0.003 µM, first compound 3.16 µM
[12] = second compound 0.003 µM, first compound 10 µM
[13] = second compound 0.00949 µM, first compound 0.0316 µM
[14] = second compound 0.00949 µM, first compound 0.1 µM
[15] = second compound 0.00949 µM, first compound 0.316 µM
[16] = second compound 0.00949 µM, first compound 1 µM
[17] = second compound 0.00949 µM, first compound 3.16 µM
[18] = second compound 0.00949 µM, first compound 10 µM
[19] = second compound 0.03 µM, first compound 0.0316 µM
[20] = second compound 0.03 µM, first compound 0.1 µM
[21] = second compound 0.03 µM, first compound 0.316 µM
[22] = second compound 0.03 µM, first compound 1 µM
[23] = second compound 0.03 µM, first compound 3.16 µM
[24] = second compound 0.03 µM, first compound 10 µM
[25] = second compound 0.0949 µM, first compound 0.0316 µM
[26] = second compound 0.0949 µM, first compound 0.1 µM
[27] = second compound 0.0949 µM, first compound 0.316 µM
[28] = second compound 0.0949 µM, first compound 1 µM
[29] = second compound 0.0949 µM, first compound 3.16 µM
[30] = second compound 0.0949 µM, first compound 10 µM
[31] = second compound 0.3 µM, first compound 0.0316 µM
[32] = second compound 0.3 µM, first compound 0.1 µM
[33] = second compound 0.3 µM, first compound 0.316 µM
[34] = second compound 0.3 µM, first compound 1 µM
[35] = second compound 0.3 µM, first compound 3.16 µM
[36] = second compound 0.3 µM, first compound 10 µM
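Also: spheroids exposed to compounds for seven days before readout.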

CC1(O)CCCC1n1c(=O)c(C(F)F)cc2cnc(NC3CCN(S(C)(=O)=O)CC3)nc21 (stereo unspecified) + CCn1c(-c2cc(N3CCN(C)CC3)cnc2C(C)OC)c2c3cc(ccc31)-c1csc(n1)CC(NC(=O)C1CC1C)C(=O)N1CCCC(N1)C(=O)OCC(C)(C)C2
pIC50 (second compound 0.000949 µM): > 7.50 | pIC50 (second compound 0.003 µM): > 7.50 | pIC50 (second compound 0.00949 µM): > 7.50 | pIC50 (second compound 0.03 µM): > 7.50 | pIC50 (second compound 0.0949 µM): > 7.50 | pIC50 (second compound 0.3 µM): > 7.50 | viability, T/C [1]: 46.6% | viability, T/C [2]: 24.9% | viability, T/C [3]: 16.1% | viability, T/C [4]: 14.2% | viability, T/C [5]: 18.5% | viability, T/C [6]: 4.43% | viability, T/C [7]: 20.3% | viability, T/C [8]: 10.9% | viability, T/C [9]: 9.42% | viability, T/C [10]: 11.9% | viability, T/C [11]: 13.4% | viability, T/C [12]: 2.79% | viability, T/C [13]: 4.59% | viability, T/C [14]: 4.26% | viability, T/C [15]: 4.8% | viability, T/C [16]: 4.95% | viability, T/C [17]: 6.03% | viability, T/C [18]: 2.54% | viability, T/C [19]: 2.77% | viability, T/C [20]: 2.5% | viability, T/C [21]: 3.09% | viability, T/C [22]: 3.54% | viability, T/C [23]: 3.12% | viability, T/C [24]: 2% | viability, T/C [25]: 1.91% | viability, T/C [26]: 2.25% | viability, T/C [27]: 2.46% | viability, T/C [28]: 2.54% | viability, T/C [29]: 1.98% | viability, T/C [30]: 2.3% | viability, T/C [31]: 2% | viability, T/C [32]: 2.25% | viability, T/C [33]: 2.49% | viability, T/C [34]: 2.5% | viability, T/C [35]: 1.75% | viability, T/C [36]: 1.85%

CCC(CC)c1cc(NC2CCC(N)C2)n2nccc2n1 (stereo unspecified) + CCn1c(-c2cc(N3CCN(C)CC3)cnc2C(C)OC)c2c3cc(ccc31)-c1csc(n1)CC(NC(=O)C1CC1C)C(=O)N1CCCC(N1)C(=O)OCC(C)(C)C2
pIC50 (second compound 0.000949 µM): > 7.50 | pIC50 (second compound 0.003 µM): > 7.50 | pIC50 (second compound 0.00949 µM): > 7.50 | pIC50 (second compound 0.03 µM): > 7.50 | pIC50 (second compound 0.0949 µM): > 7.50 | pIC50 (second compound 0.3 µM): > 7.50 | viability, T/C [1]: 48.2% | viability, T/C [2]: 55% | viability, T/C [3]: 46.9% | viability, T/C [4]: 32.9% | viability, T/C [5]: 0.81% | viability, T/C [6]: 2.3% | viability, T/C [7]: 21.7% | viability, T/C [8]: 16.6% | viability, T/C [9]: 20.9% | viability, T/C [10]: 10.7% | viability, T/C [11]: 0.83% | viability, T/C [12]: 2.38% | viability, T/C [13]: 4.86% | viability, T/C [14]: 4.6% | viability, T/C [15]: 5.64% | viability, T/C [16]: 3.71% | viability, T/C [17]: 0.61% | viability, T/C [18]: 3.05% | viability, T/C [19]: 2.61% | viability, T/C [20]: 2.47% | viability, T/C [21]: 2.47% | viability, T/C [22]: 2.01% | viability, T/C [23]: 0.73% | viability, T/C [24]: 1.89% | viability, T/C [25]: 1.88% | viability, T/C [26]: 1.8% | viability, T/C [27]: 1.76% | viability, T/C [28]: 2.22% | viability, T/C [29]: 0.82% | viability, T/C [30]: 2.4% | viability, T/C [31]: 2.16% | viability, T/C [32]: 1.88% | viability, T/C [33]: 1.75% | viability, T/C [34]: 1.54% | viability, T/C [35]: 0.54% | viability, T/C [36]: 1.98%

CCN1CCN(Cc2ccc(Nc3ncc(F)c(-c4cc(F)c5nc(C)n(C(C)C)c5c4)n3)nc2)CC1 + CCn1c(-c2cc(N3CCN(C)CC3)cnc2C(C)OC)c2c3cc(ccc31)-c1csc(n1)CC(NC(=O)C1CC1C)C(=O)N1CCCC(N1)C(=O)OCC(C)(C)C2
pIC50 (second compound 0.000949 µM): > 8.50 | pIC50 (second compound 0.003 µM): > 8.50 | pIC50 (second compound 0.00949 µM): > 8.50 | pIC50 (second compound 0.03 µM): > 8.50 | pIC50 (second compound 0.0949 µM): > 8.50 | pIC50 (second compound 0.3 µM): > 8.50 | viability, T/C (second compound 0.000949 µM, first compound 0.00316 µM): 49.8% | viability, T/C (second compound 0.000949 µM, first compound 0.01 µM): 45% | viability, T/C [1]: 35.2% | viability, T/C [2]: 24.1% | viability, T/C [3]: 16.6% | viability, T/C [4]: 11.2% | viability, T/C (second compound 0.003 µM, first compound 0.00316 µM): 15.5% | viability, T/C (second compound 0.003 µM, first compound 0.01 µM): 14.5% | viability, T/C [7]: 15.9% | viability, T/C [8]: 10.2% | viability, T/C [9]: 6.69% | viability, T/C [10]: 4.94% | viability, T/C (second compound 0.00949 µM, first compound 0.00316 µM): 6.06% | viability, T/C (second compound 0.00949 µM, first compound 0.01 µM): 5.48% | viability, T/C [13]: 4.58% | viability, T/C [14]: 3.84% | viability, T/C [15]: 3.67% | viability, T/C [16]: 2.8% | viability, T/C (second compound 0.03 µM, first compound 0.00316 µM): 3.02% | viability, T/C (second compound 0.03 µM, first compound 0.01 µM): 2.33% | viability, T/C [19]: 2.87% | viability, T/C [20]: 2.54% | viability, T/C [21]: 2.06% | viability, T/C [22]: 2.27% | viability, T/C (second compound 0.0949 µM, first compound 0.00316 µM): 1.82% | viability, T/C (second compound 0.0949 µM, first compound 0.01 µM): 1.82% | viability, T/C [25]: 1.85% | viability, T/C [26]: 2.2% | viability, T/C [27]: 2.06% | viability, T/C [28]: 1.76% | viability, T/C (second compound 0.3 µM, first compound 0.00316 µM): 1.71% | viability, T/C (second compound 0.3 µM, first compound 0.01 µM): 3.5% | viability, T/C [31]: 2.34% | viability, T/C [32]: 1.78% | viability, T/C [33]: 2.27% | viability, T/C [34]: 1.13%
